Test results: patent US11203600B2 (Denali Therapeutics Inc., priority 2017, dated 2021)
pIC50: −log10 of the molar value.

Biological target: GST-hRIPK1 (8-327) (Homo sapiens (Human), UniProt Q13546)
Assay: Fluorescent Polarization Binding (FP Binding) assay, RIPK1
Details: 10 nM GST-hRIPK1 (8-327), 5 nM fluorescent-labeled ligand, RT, 30 min, mean of at least two independent experiments
How it was run: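 Binding by fluorescence polarisation at RT: 10 nM baculovirus-expressed GST-hRIPK1 (8-327) and 5 nM fluorescent ligand, 30 min, in 50 mM HEPES pH 7.5, 50 mM MgCl2, 0.02% CHAPS, 1% DMSO. FP read at ex 531/em 595 nm. IC50 from normalised percent inhibition, mean of ≥2 experiments.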

GST-hRIPK1 (8-327), sequence (Q13546 8-327): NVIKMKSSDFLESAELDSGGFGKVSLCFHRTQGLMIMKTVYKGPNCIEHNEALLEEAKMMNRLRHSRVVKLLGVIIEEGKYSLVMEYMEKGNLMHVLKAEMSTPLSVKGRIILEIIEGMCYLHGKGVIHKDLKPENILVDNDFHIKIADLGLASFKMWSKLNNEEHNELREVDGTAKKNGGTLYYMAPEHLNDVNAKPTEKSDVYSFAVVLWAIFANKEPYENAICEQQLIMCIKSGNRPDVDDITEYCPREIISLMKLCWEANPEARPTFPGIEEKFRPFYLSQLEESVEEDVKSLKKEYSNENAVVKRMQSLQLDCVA

Row | SMILES | pIC50
1 | CC(C)(C(=O)N1CCOc2c(Cl)cncc2C1)C(F)F [Example 61, 1-(9-chloro-3,5-dihydro-2H-pyrido[3,4-f][1,4]oxazepin-4-yl)-3,3-difluoro-2,2-dimethyl-propan-1-one] | 6.00 to 7.00
2 | Cc1cncc2c1OCCN(C(=O)C(C)(C)C(F)F)C2 [Example 62, 3,3-difluoro-2,2-dimethyl-1-(9-methyl-3,5-dihydro-2H-pyrido[3,4-f][1,4]oxazepin-4-yl)propan-1-one] | < 6.00
3 | CCC1(C(=O)N2CCOc3c(C#N)cncc3C2)CC1 [Example 63, 4-(1-ethylcyclopropanecarbonyl)-3,5-dihydro-2H-pyrido[3,4-f][1,4]oxazepine-9-carbonitrile] | 6.00 to 7.00
4 | CCC1(C(=O)N2CCOc3c(C#N)cncc3C2)CCC1 [Example 64, 4-(1-ethylcyclobutanecarbonyl)-3,5-dihydro-2H-pyrido[3,4-f][1,4]oxazepine-9-carbonitrile] | 6.00 to 7.00
5 | C[C@@H]1C[C@]1(C)C(=O)N1CCOc2c(C#N)cncc2C1 [Example 65, 4-[(1S,2R)-1,2-dimethylcyclopropanecarbonyl]-3,5-dihydro-2H-pyrido[3,4-f][1,4]oxazepine-9-carbonitrile] | 6.00 to 7.00
6 | CC(C)(C(=O)N1CCOc2cc(C(F)(F)F)ncc2C1)C(F)F [Example 66, 3,3-difluoro-2,2-dimethyl-1-[8-(trifluoromethyl)-3,5-dihydro-2H-pyrido[3,4-f][1,4]oxazepin-4-yl]propan-1-one] | < 6.00
7 | CCC(C)(C(=O)N1CCOc2c(C#N)cncc2C1)C(F)(F)F (stereo not shown) [Example 67, 4-[2-methyl-2-(trifluoromethyl)butanoyl]-3,5-dihydro-2H-pyrido[3,4f][1,4]oxazepine-9-carbonitrile] | 7.00 to 10.00
8 | CC(C)(C(=O)N1CCOc2cc(F)ccc2C1)C(F)F [Example 68, 3,3-difluoro-1-(8-fluoro-3,5-dihydro-2H-1,4-benzoxazepin-4-yl)-2,2-dimethyl-propan-1-one] | 6.00 to 7.00
9 | CC(C)(OC(F)(F)F)C(=O)N1CCOc2c(C#N)cncc2C1 [Example 69, 4-[2-methyl-2-(trifluoromethoxy)propanoyl]-3,5-dihydro-2H-pyrido[3,4-f][1,4]oxazepine-9-carbonitrile] | 7.00 to 10.00
10 | CC(C)(CC#N)C(=O)N1CCOc2c(F)cncc2C1 [Example 70, 4-(9-fluoro-2,3-dihydropyrido[3,4-f][1,4]oxazepin-4(5H)-yl)-3,3-dimethyl-4-oxobutanenitrile] | 6.00 to 7.00
11 | CC(C#N)C(C)(C)C(=O)N1CCOc2c(F)cncc2C1 (stereo not shown) [Example 71, 4-(9-fluoro-2,3-dihydropyrido[3,4-f][1,4]oxazepin-4(5H)-yl)-2,3,3-trimethyl-4-oxobutanenitrile] | < 6.00
12 | CC(C#N)C(C)(C)C(=O)N1CCOc2c(C#N)cncc2C1 (stereo not shown) [Example 72] | 6.00 to 7.00
13 | CCC(C)(CC#N)C(=O)N1CCOc2c(F)cncc2C1 (stereo not shown) [Example 73, 3-(9-fluoro-3,5-dihydro-2H-pyrido[3,4-f][1,4]oxazepine-4-carbonyl)-3-methyl-pentanenitrile] | 6.00 to 7.00
14 | CCC(C)(CC#N)C(=O)N1CCOc2c(C#N)cncc2C1 (stereo not shown) [Example 74, 4-[2-(cyanomethyl)-2-methyl-butanoyl]-3,5-dihydro-2H-pyrido[3,4-f][1,4]oxazepine-9-carbonitrile] | 7.00 to 10.00
15 | CCC(C)(C)C(=O)N1Cc2cncc(C#N)c2OC[C@H]1C [Example 75, (3R)-4-(2,2-dimethylbutanoyl)-3-methyl-3,5-dihydro-2H-pyrido[3,4-f][1,4]oxazepine-9-carbonitrile] | 7.00 to 10.00
16 | CCC(C)C(=O)N1Cc2cncc(C#N)c2OC[C@H]1C (stereo partly drawn) [Example 76, (3R)-3-methyl-4-(2-methylbutanoyl)-3,5-dihydro-2H-pyrido[3,4-f][1,4]oxazepine-9-carbonitrile] | 6.00 to 7.00
17 | C[C@@H]1COc2c(C#N)cncc2CN1C(=O)C(C)(C)CF [Example 77, (3R)-4-(3-fluoro-2,2-dimethyl-propanoyl)-3-methyl-3,5-dihydro-2H-pyrido[3,4-f][1,4]oxazepine-9-carbonitrile] | 7.00 to 10.00
18 | C[C@@H]1COc2c(C#N)cncc2CN1C(=O)C(C)(C)C [Example 78, (3R)-4-(2,2-dimethylpropanoyl)-3-methyl-3,5-dihydro-2H-pyrido[3,4-f][1,4]oxazepine-9-carbonitrile] | 7.00 to 10.00
19 | CC(C)(C(=O)N1CCOc2c(F)cncc2C1)C(F)(F)F [Example 79, 3,3,3-trifluoro-1-(9-fluoro-3,5-dihydro-2H-pyrido[3,4-f][1,4]oxazepin-4-yl)-2,2-dimethyl-propan-1-one] | 6.00 to 7.00

Row | SMILES | pIC50
20 | CC(C)(C)C(=O)N1CCOc2c(F)cncc2C1 [Example 80, 1-(9-fluoro-3,5-dihydro-2H-pyrido[3,4-f][1,4]oxazepin-4-yl)-2,2-dimethyl-propan-1-one] | 6.00 to 7.00
21 | CC(C)(C(=O)N1CCOc2c(C#N)cncc2C1)C1(O)CC1 [Example 81, 4-(2-(1-hydroxycyclopropyl)-2-methylpropanoyl)-2,3,4,5-tetrahydropyrido[3,4-f][1,4]oxazepine-9-carbonitrile] | < 6.00
22 | CC(C)(C(=O)N1CCOc2c(C#N)cncc2C1)C1CC1C(F)F (stereo not shown) [Example 82, 4-[2-(-2-(difluoromethyl)cyclopropyl)-2-methyl-propanoyl]-3,5-dihydro-2H-pyrido[3,4-f][1,4]oxazepine-9-carbonitrile] | 6.00 to 7.00
23 | CC(C)(C(=O)N1CCOc2c(C#N)cncc2C1)C1CC1C#N (stereo not shown) [Example 83, 4-[2-(2-cyanocyclopropyl)-2-methyl-propanoyl]-3,5-dihydro-2H-pyrido[3,4-f][1,4]oxazepine-9-carbonitrile] | < 6.00
24 | CC(C)(C(=O)N1CCOc2c(C#N)cncc2C1)C1CC(F)(F)C1 [Example 84, 4-[2-(3,3-difluorocyclobutyl)-2-methyl-propanoyl]-3,5-dihydro-2H-pyrido[3,4-f][1,4]oxazepine-9-carbonitrile] | 7.00 to 10.00
25 | CC(C)(C(=O)N1CCOc2c(C#N)cncc2C1)C1CN(c2ncc(F)cn2)C1 [Example 85, 4-[2-[1-(5-fluoropyrimidin-2-yl)azetidin-3-yl]-2-methyl-propanoyl]-3,5-dihydro-2H-pyrido[3,4-f][1,4]oxazepine-9-carbonitrile] | 6.00 to 7.00
26 | C[C@@H]1COc2c(C#N)cncc2CN1C(=O)C1(F)CCN(c2ncc(F)cn2)CC1 [Example 86, (3R)-4-[4-fluoro-1-(5-fluoropyrimidin-2-yl)piperidine-4-carbonyl]-3-methyl-3,5-dihydro-2H-pyrido[3,4-f][1,4]oxazepine-9-carbonitrile] | 7.00 to 10.00
27 | N#Cc1cncc2c1OCCN(C(=O)C1(F)CCN(c3cnccn3)CC1)C2 [Example 87, 4-(4-fluoro-1-pyrazin-2-yl-piperidine-4-carbonyl)-3,5-dihydro-2H-pyrido[3,4-f][1,4]oxazepine-9-carbonitrile] | 6.00 to 7.00
28 | N#Cc1cncc2c1OCCN(C(=O)C1(F)CCN(c3ccncn3)CC1)C2 [Example 88, 4-(4-fluoro-1-pyrimidin-4-yl-piperidine-4-carbonyl)-3,5-dihydro-2H-pyrido[3,4-f][1,4]oxazepine-9-carbonitrile] | 6.00 to 7.00
29 | CC(C)(C(=O)N1CCOc2c(C#N)cncc2C1)C1CCN(c2ncc(F)cn2)C1 (stereo not shown) [Example 90, 4-[2-[1-(5-fluoropyrimidin-2-yl)pyrrolidin-3-yl]-2-methyl-propanoyl]-3,5-dihydro-2H-pyrido[3,4-f][1,4]oxazepine-9-carbonitrile] | 7.00 to 10.00
30 | CC1CC(C(=O)N2CCOc3c(C#N)cncc3C2)CCN1c1ncc(F)cn1 (stereo not shown) [Example 91, 4-[1-(5-fluoropyrimidin-2-yl)-2-methyl-piperidine-4-carbonyl]-3,5-dihydro-2H-pyrido[3,4-f][1,4]oxazepine-9-carbonitrile] | 6.00 to 7.00
31 | N#Cc1cncc2c1OCCN(C(=O)C1CCCN(c3ncc(F)cn3)CC1)C2 (stereo not shown) [Example 92, 4-[1-(5-fluoropyrimidin-2-yl)azepane-4-carbonyl]-3,5-dihydro-2H-pyrido[3,4-f][1,4]oxazepine-9-carbonitrile] | 6.00 to 7.00
32 | N#Cc1cncc2c1OCCN(C(=O)C13CC(COc4ncc(F)cn4)(C1)C3)C2 [Example 93, 4-(3-(((5-fluoropyrimidin-2-yl)oxy)methyl)bicyclo[1.1.1]pentane-1-carbonyl)-2,3,4,5-tetrahydropyrido[3,4-f][1,4]oxazepine-9-carbonitrile] | 6.00 to 7.00
33 | N#Cc1cncc2c1OCCN(C(=O)C1(C(F)F)CCN(c3ncc(F)cn3)CC1)C2 [Example 94, 4-[4-(difluoromethyl)-1-(5-fluoropyrimidin-2-yl)piperidine-4-carbonyl]-3,5-dihydro-2H-pyrido[3,4-f][1,4]oxazepine-9-carbonitrile] | 6.00 to 7.00
34 | N#Cc1cncc2c1OCCN(C(=O)C1(F)CCN(C(=O)c3cccnc3)CC1)C2 [Example 95, 4-[4-fluoro-1-(pyridine-3-carbonyl)piperidine-4-carbonyl]-3,5-dihydro-2H-pyrido[3,4-f][1,4]oxazepine-9-carbonitrile] | < 6.00
35 | CC1(C(=O)N2CCOc3c(C#N)cncc3C2)CCN(c2ncc(F)cn2)CC1(F)F (stereo not shown) [Example 96, 4-[3,3-difluoro-1-(5-fluoropyrimidin-2-yl)-4-methyl-piperidine-4-carbonyl]-3,5-dihydro-2H-pyrido[3,4-f][1,4]oxazepine-9-carbonitrile] | 7.00 to 10.00
36 | N#Cc1cncc2c1OCCN(C(=O)C1(F)CCN(c3ncc4ccccc4n3)CC1)C2 [Example 97, 4-(4-fluoro-1-quinazolin-2-yl-piperidine-4-carbonyl)-3,5-dihydro-2H-pyrido[3,4-f][1,4]oxazepine-9-carbonitrile] | 7.00 to 10.00
37 | CCC1(C(=O)N2CCOc3c(C#N)cncc3C2)CCN(c2ncc(F)cn2)CC1 [Example 98, 4-[4-ethyl-1-(5-fluoropyrimidin-2-yl)piperidine-4-carbonyl]-3,5-dihydro-2H-pyrido[3,4-f][1,4]oxazepine-9-carbonitrile] | 6.00 to 7.00
